According to patent publication US7501412B2, “Isoquinoline compounds and medicinal use thereof” (Mitsubishi Tanabe Pharma Corporation, priority 2002, dated 2009):
Structures can show the parent of a compound that is named as a salt.

Target: T1, recombinant human PARP (Homo sapiens, UniProt P09874)
T1 construct: purchased Trevigen 4667-02X
Assay: PARP enzyme activity inhibitory action
Format: biochemical
Details: recombinant human PARP (Trevigen), 3H-NAD, activated DNA, 25° C. for 15 min
Protocol: After incubation at 25° C. for 15 min., the reaction was stopped by adding 20% trichloroacetic acid, and the resulting acid insoluble fraction was adsorbed to a GF/B filter. Then, the filter was washed several times with 5% trichloroacetic acid, and the radioactivity on the filter was measured with a liquid scintillation counter.

T1 sequence (P09874 whole entry): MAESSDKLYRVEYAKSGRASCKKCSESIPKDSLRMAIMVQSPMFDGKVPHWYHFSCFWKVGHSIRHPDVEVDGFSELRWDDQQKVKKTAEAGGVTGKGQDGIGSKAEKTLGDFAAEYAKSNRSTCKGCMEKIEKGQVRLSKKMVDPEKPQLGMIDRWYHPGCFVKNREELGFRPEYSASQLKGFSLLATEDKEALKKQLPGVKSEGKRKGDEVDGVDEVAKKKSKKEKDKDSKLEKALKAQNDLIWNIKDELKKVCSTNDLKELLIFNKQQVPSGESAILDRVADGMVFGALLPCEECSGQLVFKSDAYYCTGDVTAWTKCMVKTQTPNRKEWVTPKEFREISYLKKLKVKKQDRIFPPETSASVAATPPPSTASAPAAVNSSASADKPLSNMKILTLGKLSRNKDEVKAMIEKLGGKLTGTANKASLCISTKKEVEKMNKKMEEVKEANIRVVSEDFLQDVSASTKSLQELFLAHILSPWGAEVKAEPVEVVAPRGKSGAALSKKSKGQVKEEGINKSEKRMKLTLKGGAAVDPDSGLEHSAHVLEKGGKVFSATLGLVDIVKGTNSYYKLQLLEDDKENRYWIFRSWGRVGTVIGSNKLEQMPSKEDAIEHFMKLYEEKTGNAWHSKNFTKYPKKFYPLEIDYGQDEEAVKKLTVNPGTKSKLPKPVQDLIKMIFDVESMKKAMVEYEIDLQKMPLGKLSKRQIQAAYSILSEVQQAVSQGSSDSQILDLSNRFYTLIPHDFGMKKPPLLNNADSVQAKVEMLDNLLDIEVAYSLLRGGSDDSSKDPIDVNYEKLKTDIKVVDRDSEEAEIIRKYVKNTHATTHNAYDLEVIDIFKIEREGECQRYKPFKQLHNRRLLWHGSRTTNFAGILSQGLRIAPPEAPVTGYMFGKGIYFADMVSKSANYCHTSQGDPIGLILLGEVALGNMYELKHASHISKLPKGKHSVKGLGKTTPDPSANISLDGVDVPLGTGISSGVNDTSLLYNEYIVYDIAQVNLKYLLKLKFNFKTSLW

| SMILES | IC50 [µM] |
| --- | --- |
| O=C1NCCc2c(OCCCCN3CCCCC3)cccc21 [DPQ, 3,4-dihydro-5-[4-(1-piperidinyl)-butoxy]-1(2H)-isoquinolinone, reference compound] | 1 |
| CN(C)CC(=O)c1c(N)[nH]c(=O)c2ccccc12 [Ex. 1, 3-amino-4-(2-(dimethylamino)acetyl)-2H-isoquinolin-1-one hydrochloride monohydrate] | 0.043 |
| Cn1nc(CN2CCCC2)c2c3ccccc3c(=O)[nH]c21 [Ex. 7, 3-methyl-1-(pyrrolidin-1-yl)methyl-3H-pyrazolo[3,4-c]isoquinolin-5(4H)-one] | 0.032 |
| CN(C)CC(=O)c1c(N)[nH]c(=O)c2cc(F)ccc12 [Ex. 14, 3-Amino-4-(2-(dimethylamino)acetyl)-7-fluoro-2H-isoquinolin-1-one hydrochloride] | 0.04 |
| CN1CCN(Cc2nn(C)c3[nH]c(=O)c4ccccc4c23)CC1 [Ex. 21, 3-Methyl-1-((4-methylpiperazin-1-yl)methyl)-3H-pyrazolo[3,4-c]isoquinolin-5(4H)-one] | 0.143 |
| Cc1[nH]c(=O)c2ccccc2c1CN1CCCC1 [Ex. 25, 3-Methyl-4-(pyrrolidin-1-yl)methyl-2H-isoquinolin-1-one] | 0.067 |
| Cc1[nH]c(=O)c2cc(Cl)ccc2c1CN1CCCC1 [Ex. 27, 7-chloro-3-methyl-4-((pyrrolidin-1-yl)methyl)-2H-isoquinolin-1-one] | 0.039 |
| Cc1[nH]c(=O)c2cc(F)ccc2c1CN1CCCC1 [Ex. 28, 7-Fluoro-3-methyl-4-((pyrrolidin-1-yl)methyl)-2H-isoquinolin-1-one] | 0.045 |
| O=c1[nH]cc(C2CCNCC2)c2ccccc12 [Ex. 31, 4-(piperidin-4-yl)-2H-isoquinolin-1-one hydrochloride] | 0.031 |
| O=c1[nH]cc(C2CCN(CCO)CC2)c2ccccc12 [Ex. 32, 4-(1-(2-hydroxyethyl)piperidin-4-yl)-2H-isoquinolin-1-one] | 0.034 |
| CN1CCC(c2c[nH]c(=O)c3ccccc23)CC1 [Ex. 33, 4-(1-methylpiperidin-4-yl)-2H-isoquinolin-1-one] | 0.04 |
| O=c1[nH]cc(C2CCNCC2)c2ccc(Cl)cc12 [Ex. 44, 7-Chloro-4-(piperidin-4-yl)-2H-isoquinolin-1-one hydrochloride] | 0.022 |
| O=c1[nH]cc(C2CCNCC2)c2ccc(F)cc12 [Ex. 45, 7-Fluoro-4-(piperidin-4-yl)-2H-isoquinolin-1-one hydrochloride] | 0.022 |
| CN1CCC(c2c[nH]c(=O)c3cc(Cl)ccc23)CC1 [Ex. 46, 7-Chloro-4-(1-methylpiperidin-4-yl)-2H-isoquinolin-1-one] | 0.037 |
| CN1CCC(c2c[nH]c(=O)c3cc(F)ccc23)CC1 [Ex. 47, 7-Fluoro-4-(1-methylpiperidin-4-yl)-2H-isoquinolin-1-one hydrochloride] | 0.023 |
| O=c1[nH]cc(C2CCN(CCO)CC2)c2ccc(F)cc12 [Ex. 48, 7-Fluoro-4-(1-(2-hydroxyethyl)piperidin-4-yl)-2H-isoquinolin-1-one hydrochloride] | 0.024 |
| CN1CCC(c2nn(C)c3[nH]c(=O)c4ccccc4c23)CC1 [Ex. 209, 1-(1-methylpiperidin-4-yl)-3-methyl-pyrazolo[3,4-c]isoquinolin-5(4H)-one] | 0.043 |
| CCN1CCC(c2nn(C)c3[nH]c(=O)c4ccccc4c23)CC1 [Ex. 210, 1-(1-Ethylpiperidin-4-yl)-3-methyl-pyrazolo[3,4-c]isoquinolin-5(4H)-one] | 0.025 |
| CCN1CCC(c2c[nH]c(=O)c3cc(F)ccc23)CC1 [Ex. 212, 7-Fluoro-4-(1-ethylpiperidin-4-yl)-2H-isoquinolin-1-one] | 0.047 |
| Cn1nc(C2CCNCC2)c2c3ccc(F)cc3c(=O)[nH]c21 [Ex. 221, 7-Fluoro-1-(piperidin-4-yl)-3-methyl-pyrazolo[3,4-c]isoquinolin-5(4H)-one hydrochloride] | 0.03 |
| CN1CCC(c2nn(C)c3[nH]c(=O)c4cc(F)ccc4c23)CC1 [Ex. 222, 7-Fluoro-1-(1-methylpiperidin-4-yl)-3-methyl-pyrazolo[3,4-c]isoquinolin-5(4H)-one] | 0.044 |
| CCN1CCC(c2nn(C)c3[nH]c(=O)c4cc(F)ccc4c23)CC1 [Ex. 223, 1-(1-Ethylpiperidin-4-yl)-7-fluoro-3-methyl-pyrazolo[3,4-c]isoquinolin-5(4H)-one] | 0.03 |
| CCCN1CCC(c2nn(C)c3[nH]c(=O)c4cc(F)ccc4c23)CC1 [Ex. 225, 7-Fluoro-1-(1-propylpiperidin-4-yl)-3-methyl-pyrazolo[3,4-c]isoquinolin-5(4H)-one] | 0.042 |
| CCCN1CCC(c2nn(C)c3[nH]c(=O)c4ccccc4c23)CC1 [Ex. 226, 1-(1-Propylpiperidin-4-yl)-3-methyl-pyrazolo[3,4-c]isoquinolin-5(4H)-one] | 0.047 |

System: not given
Assay: not given
Details: not given

| SMILES | melting point [°C] |
| --- | --- |
| CN1CCC(c2c[nH]c(=O)c3c(F)cccc23)CC1 | 227.6 to 229.3 |
| Cc1ccc2c(C3CCN(C)CC3)c[nH]c(=O)c2c1 | 212.8 to 214.8 |
| CN1CCC(c2c[nH]c(=O)c3cc(C(F)(F)F)ccc23)CC1 (as salt: hydrochloride) [Example 198, 4-(1-Methylpiperidin-4-yl)-7-trifluoromethyl-2H-isoquinolin-1-one] | 231.8 to 234.6 |
| COc1ccc2c(C3CCN(C)CC3)c[nH]c(=O)c2c1 [Example 201, 7-Methoxy-4-(1-methylpiperidin-4-yl)-2H-isoquinolin-1-one] | 224.9 to 226.2 |
